Literature values in US11793769B2, “Device with compositions for delivery to the lungs, the oral mucosa and the brain” (priority 2014, dated 2023).

Tests used:
[1] = molecular target: cannabinoid type II receptor (CB2) (Homo sapiens, UniProt P34972); settings: compared with CB1
[2] = test system: paclitaxel-induced neuropathic pain; settings: without affecting the efficacy of the chemotherapy
[3] = test system: animal models of anxiety and depression; settings: in vivo

Chain of cannabinoid type II receptor (CB2) (P34972 whole entry, species assumed): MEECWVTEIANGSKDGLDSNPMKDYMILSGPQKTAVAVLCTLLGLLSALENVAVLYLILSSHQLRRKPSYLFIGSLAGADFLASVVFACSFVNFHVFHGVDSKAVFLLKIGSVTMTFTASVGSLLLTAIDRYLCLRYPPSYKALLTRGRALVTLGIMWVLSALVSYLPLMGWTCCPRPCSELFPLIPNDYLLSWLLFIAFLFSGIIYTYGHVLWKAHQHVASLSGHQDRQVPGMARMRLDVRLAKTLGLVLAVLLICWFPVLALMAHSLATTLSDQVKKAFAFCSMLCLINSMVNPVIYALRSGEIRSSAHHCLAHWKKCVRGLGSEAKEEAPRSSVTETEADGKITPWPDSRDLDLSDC

C=C(C)[C@@H]1CCC(C)=C[C@H]1c1c(O)cc(CCCCC)cc1O [CBD, cannabidiol]
affinity to CB2 [1]: higher affinity
effect on paclitaxel-induced neuropathic pain [2]: inhibits paclitaxel-induced neuropathic pain
effects in animal models of anxiety and depression [3]: both anti-anxiety and antidepressant effects
